# Source: PubChem BioAssay AID1918956 (Molecular Pharmacology Branch, DTP, NCI, 2023)
# Values joined by “and” are separate entries in the source; they are usually repeats but may differ in a detail not shown here. Identical values can stand only once.
# Tested on: OVCAR-5 complex spheroids, viability
# Test: Anticancer human tumor OVCAR-5 cell line growth inhibition;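 also: spheroids exposed to agents for seven days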;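 as to viability, T/C: 100% = DMSO vehicle control wells viability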
# Conditions: for viability, T/C: stronger effect = lower value
# How it was run: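 Multicellular complex spheroids of tumor cells with human endothelial cells (HUVEC) and mesenchymal stem cells; the LSD1 inhibitor iadademstat was combined with standard-of-care or investigational agents. Top concentration at or near clinical Cmax, half-log dilutions; final DMSO ≤0.25%.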
# [1] = curve of first compound, second compound 0.1 µM
# [2] = curve of first compound, second compound 0.316 µM
# [3] = curve of first compound, second compound 1 µM
# [4] = curve of first compound, second compound 3.16 µM
# [5] = curve of first compound, second compound 10 µM
# [6] = second compound 0.1 µM, first compound 0.0316 µM
# [7] = second compound 0.1 µM, first compound 0.1 µM
# [8] = second compound 0.1 µM, first compound 0.316 µM
# [9] = second compound 0.1 µM, first compound 1 µM
# [10] = second compound 0.1 µM, first compound 3.16 µM
# [11] = second compound 0.1 µM, first compound 10 µM
# [12] = second compound 0.316 µM, first compound 0.0316 µM
# [13] = second compound 0.316 µM, first compound 0.1 µM
# [14] = second compound 0.316 µM, first compound 0.316 µM
# [15] = second compound 0.316 µM, first compound 1 µM
# [16] = second compound 0.316 µM, first compound 3.16 µM
# [17] = second compound 0.316 µM, first compound 10 µM
# [18] = second compound 1 µM, first compound 0.0316 µM
# [19] = second compound 1 µM, first compound 0.1 µM
# [20] = second compound 1 µM, first compound 0.316 µM
# [21] = second compound 1 µM, first compound 1 µM
# [22] = second compound 1 µM, first compound 3.16 µM
# [23] = second compound 1 µM, first compound 10 µM
# [24] = second compound 3.16 µM, first compound 0.0316 µM
# [25] = second compound 3.16 µM, first compound 0.1 µM
# [26] = second compound 3.16 µM, first compound 0.316 µM
# [27] = second compound 3.16 µM, first compound 1 µM
# [28] = second compound 3.16 µM, first compound 3.16 µM
# [29] = second compound 3.16 µM, first compound 10 µM
# [30] = second compound 10 µM, first compound 0.0316 µM
# [31] = second compound 10 µM, first compound 0.1 µM
# [32] = second compound 10 µM, first compound 0.316 µM
# [33] = second compound 10 µM, first compound 1 µM
# [34] = second compound 10 µM, first compound 3.16 µM
# [35] = second compound 10 µM, first compound 10 µM
compound,measurement,setting,value
CC1COCCN1c1cc(C2(S(C)(=N)=O)CC2)nc(-c2ccnc3[nH]ccc23)n1 (configuration not stated) + NC1CC1c1ccc(-c2cccc(O)c2)cc1,IC50,[1],858 nM
same,IC50,[2],862 nM
same,IC50,[3],792 nM
same,IC50,[4],663 nM
same,IC50,[5],697 nM
same,"viability, T/C",[6],80.6%
same,"viability, T/C",[7],78.3%
same,"viability, T/C",[8],72.8%
same,"viability, T/C",[9],45.9%
same,"viability, T/C",[10],32%
same,"viability, T/C",[11],26.7%
same,"viability, T/C",[12],89.2%
same,"viability, T/C",[13],95.6%
same,"viability, T/C",[14],80.6%
same,"viability, T/C",[15],44.9%
same,"viability, T/C",[16],33%
same,"viability, T/C",[17],25.6%
same,"viability, T/C",[18],71.4%
same,"viability, T/C",[19],75.4%
same,"viability, T/C",[20],74.2%
same,"viability, T/C",[21],44%
same,"viability, T/C",[22],29.9%
same,"viability, T/C",[23],25%
same,"viability, T/C",[24],88.8%
same,"viability, T/C",[25],77.6%
same,"viability, T/C",[26],62.1%
same,"viability, T/C",[27],42.9%
same,"viability, T/C",[28],32%
same,"viability, T/C",[29],24.8%
same,"viability, T/C",[30],76.9%
same,"viability, T/C",[31],78.6%
same,"viability, T/C",[32],65.7%
same,"viability, T/C",[33],42.3%
same,"viability, T/C",[34],32.3%
same,"viability, T/C",[35],27%
COc1ccc([C@@H](O)c2cc(-c3ncnc4cc(N5CCOCC5)ccc34)c(F)cc2Cl)nn1 + NC1CCC(NC2CC2c2ccccc2)CC1,IC50,[1],1910 nM
same,IC50,[2],1360 nM
same,IC50,[3],1920 nM
same,IC50,[4],1610 nM
same,IC50,[5],992 nM
same,"viability, T/C",[6],88.3%
same,"viability, T/C",[7],91.5%
same,"viability, T/C",[8],79%
same,"viability, T/C",[9],56%
same,"viability, T/C",[10],46%
same,"viability, T/C",[11],26.1%
same,"viability, T/C",[12],99.3%
same,"viability, T/C",[13],93.1%
same,"viability, T/C",[14],69.6%
same,"viability, T/C",[15],54.5%
same,"viability, T/C",[16],40%
same,"viability, T/C",[17],26%
same,"viability, T/C",[18],88.2%
same,"viability, T/C",[19],80.2%
same,"viability, T/C",[20],66.4%
same,"viability, T/C",[21],60.9%
same,"viability, T/C",[22],44.2%
same,"viability, T/C",[23],28%
same,"viability, T/C",[24],93.3%
same,"viability, T/C",[25],83.2%
same,"viability, T/C",[26],69.3%
same,"viability, T/C",[27],57.5%
same,"viability, T/C",[28],40.5%
same,"viability, T/C",[29],26.1%
same,"viability, T/C",[30],82.5%
same,"viability, T/C",[31],83%
same,"viability, T/C",[32],63%
same,"viability, T/C",[33],50.8%
same,"viability, T/C",[34],35.8%
same,"viability, T/C",[35],25.6%
COc1ccc([C@@H](O)c2cc(-c3ncnc4cc(N5CCOCC5)ccc34)c(F)cc2Cl)nn1 + NC1CC1c1ccc(-c2cccc(O)c2)cc1,IC50,[1],625 nM
same,IC50,[2],740 nM
same,IC50,[3],419 nM
same,IC50,[4],396 nM
same,IC50,[5],300 nM
same,"viability, T/C",[6],80.8%
same,"viability, T/C",[7],72.6%
same,"viability, T/C",[8],55.3%
same,"viability, T/C",[9],46.4%
same,"viability, T/C",[10],29.5%
same,"viability, T/C",[11],16.4%
same,"viability, T/C",[12],92.3%
same,"viability, T/C",[13],79.1%
same,"viability, T/C",[14],61.4%
same,"viability, T/C",[15],45.3%
same,"viability, T/C",[16],31.8%
same,"viability, T/C",[17],18.1%
same,"viability, T/C",[18],86.3%
same,"viability, T/C",[19],73.4%
same,"viability, T/C",[20],57.1%
same,"viability, T/C",[21],31.7%
same,"viability, T/C",[22],25.8%
same,"viability, T/C",[23],16.7%
same,"viability, T/C",[24],84%
same,"viability, T/C",[25],68%
same,"viability, T/C",[26],49.9%
same,"viability, T/C",[27],38.8%
same,"viability, T/C",[28],31.6%
same,"viability, T/C",[29],15.9%
same,"viability, T/C",[30],79.1%
same,"viability, T/C",[31],65.3%
same,"viability, T/C",[32],46.7%
same,"viability, T/C",[33],36.6%
same,"viability, T/C",[34],29.6%
same,"viability, T/C",[35],16.6%
CC[C@@]1(O)C(=O)OCc2c1cc1n(c2=O)Cc2cc3c(CN(C)C)c(O)ccc3nc2-1,"viability, T/C",compound 0.000316 µM,102% and 99%
same,"viability, T/C",compound 0.001 µM,93% and 93.4%
same,"viability, T/C",compound 0.00316 µM,57% and 47.1%
same,"viability, T/C",compound 0.01 µM,46.6% and 31.7%
same,"viability, T/C",compound 0.0316 µM,47.1% and 34.3%
same,"viability, T/C",compound 0.1 µM,24% and 18.9%
same,IC50,curve of compound,8.81 nM and 2.98 nM
CC1(C)CCC(CN2CCN(c3ccc(C(=O)NS(=O)(=O)c4ccc(NCC5CCOCC5)c([N+](=O)[O-])c4)c(Oc4cnc5[nH]ccc5c4)c3)CC2)=C(c2ccc(Cl)cc2)C1 + NC1CCC(NC2CC2c2ccccc2)CC1,IC50,[1],7150 nM
same,IC50,[2],7060 nM
same,IC50,[3],6810 nM
same,IC50,[4],6300 nM
same,IC50,[5],5480 nM
same,"viability, T/C",[6],116%
same,"viability, T/C",[7],97.5%
same,"viability, T/C",[8],105%
same,"viability, T/C",[9],98.9%
same,"viability, T/C",[10],111%
same,"viability, T/C",[11],27.1%
same,"viability, T/C",[12],108%
same,"viability, T/C",[13],97.6%
same,"viability, T/C",[14],98.4%
same,"viability, T/C",[15],108%
same,"viability, T/C",[16],111%
same,"viability, T/C",[17],26.2%
same,"viability, T/C",[18],97.6%
same,"viability, T/C",[19],91.5%
same,"viability, T/C",[20],92.3%
same,"viability, T/C",[21],101%
same,"viability, T/C",[22],96.1%
same,"viability, T/C",[23],27%
same,"viability, T/C",[24],99.9%
same,"viability, T/C",[25],106%
same,"viability, T/C",[26],105%
same,"viability, T/C",[27],104%
same,"viability, T/C",[28],88.8%
same,"viability, T/C",[29],23.8%
same,"viability, T/C",[30],90.7%
same,"viability, T/C",[31],93.3%
same,"viability, T/C",[32],78.4%
same,"viability, T/C",[33],91.7%
same,"viability, T/C",[34],72.8%
same,"viability, T/C",[35],24.9%
COc1cc(C2c3cc4c(cc3C(OC3OC5COC(C)OC5C(O)C3O)C3COC(=O)C23)OCO4)cc(OC)c1O (configuration not stated) + NC1CC1c1ccc(-c2cccc(O)c2)cc1,IC50,[1],407 nM
same,IC50,[2],503 nM
same,IC50,[3],397 nM
same,IC50,[4],422 nM
same,IC50,[5],302 nM
same,"viability, T/C","second compound 0.1 µM, first compound 0.00949 µM",94.9%
same,"viability, T/C","second compound 0.1 µM, first compound 0.03 µM",93.3%
same,"viability, T/C","second compound 0.1 µM, first compound 0.0949 µM",80.2%
same,"viability, T/C","second compound 0.1 µM, first compound 0.3 µM",55.3%
same,"viability, T/C","second compound 0.1 µM, first compound 0.949 µM",36.1%
same,"viability, T/C","second compound 0.1 µM, first compound 3 µM",32.5%
same,"viability, T/C","second compound 0.316 µM, first compound 0.00949 µM",96.7%
same,"viability, T/C","second compound 0.316 µM, first compound 0.03 µM",109%
same,"viability, T/C","second compound 0.316 µM, first compound 0.0949 µM",91.8%
same,"viability, T/C","second compound 0.316 µM, first compound 0.3 µM",61.7%
same,"viability, T/C","second compound 0.316 µM, first compound 0.949 µM",35.8%
same,"viability, T/C","second compound 0.316 µM, first compound 3 µM",32.3%
same,"viability, T/C","second compound 1 µM, first compound 0.00949 µM",100%
same,"viability, T/C","second compound 1 µM, first compound 0.03 µM",103%
same,"viability, T/C","second compound 1 µM, first compound 0.0949 µM",85.5%
same,"viability, T/C","second compound 1 µM, first compound 0.3 µM",56.8%
same,"viability, T/C","second compound 1 µM, first compound 0.949 µM",31.4%
same,"viability, T/C","second compound 1 µM, first compound 3 µM",32.4%
same,"viability, T/C","second compound 3.16 µM, first compound 0.00949 µM",89.1%
same,"viability, T/C","second compound 3.16 µM, first compound 0.03 µM",85.2%
same,"viability, T/C","second compound 3.16 µM, first compound 0.0949 µM",74.9%
same,"viability, T/C","second compound 3.16 µM, first compound 0.3 µM",55%
same,"viability, T/C","second compound 3.16 µM, first compound 0.949 µM",38.4%
same,"viability, T/C","second compound 3.16 µM, first compound 3 µM",34.6%
same,"viability, T/C","second compound 10 µM, first compound 0.00949 µM",85.1%
same,"viability, T/C","second compound 10 µM, first compound 0.03 µM",88.8%
same,"viability, T/C","second compound 10 µM, first compound 0.0949 µM",67.5%
same,"viability, T/C","second compound 10 µM, first compound 0.3 µM",53.3%
same,"viability, T/C","second compound 10 µM, first compound 0.949 µM",35.2%
same,"viability, T/C","second compound 10 µM, first compound 3 µM",37%
